A word on the IC50: it is the point on the concentration scale where inhibition reaches its midpoint.

The source of these data is patent US20230373989A1, “N-PHENYLAMINOCARBONYL PYRIDINO-, PYRIMIDINO AND BENZO-TROPANES AS MODULATORS OF GPR65” (PATHIOS THERAPEUTICS LIMITED, priority 2020, published 2023).

In one experiment the target is T1, human recombinant GPR65 (Homo sapiens, UniProt Q8IYL9).
T1 construct: host or cells: 1321N1 human astrocytoma cells (1321N1-hrGPR65)
T1 sequence (Q8IYL9 whole entry): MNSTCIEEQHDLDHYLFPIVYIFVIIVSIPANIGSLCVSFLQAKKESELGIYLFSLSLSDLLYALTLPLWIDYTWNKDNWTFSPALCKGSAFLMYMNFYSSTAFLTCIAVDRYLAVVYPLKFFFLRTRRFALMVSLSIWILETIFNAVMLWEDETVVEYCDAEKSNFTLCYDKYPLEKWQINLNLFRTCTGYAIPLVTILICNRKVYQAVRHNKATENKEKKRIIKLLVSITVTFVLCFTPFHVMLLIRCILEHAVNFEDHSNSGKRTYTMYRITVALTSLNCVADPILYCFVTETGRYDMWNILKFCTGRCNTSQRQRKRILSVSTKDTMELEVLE
Kind of experiment: Human GPR65 cAMP HTRF antagonist assay.
Conditions: not given
In kind it is cell-based. An excerpt: In one preferred embodiment, the compound prevents the increase in cytoplasmic cAMP levels expected following GPR65 activation at acidic pH. This prevention of cAMP accumulation in turn prevents downstream signalling through ICER, as described above. The “Human GPR65 cyclic adenosine monophosphate (cAMP) Homogeneous Time Resolved Fluorescence (HTRF) antagonist assay”, or simply “cAMP assay”, as described in the accompanying examples, can be used to measure the potency of GPR65 modulators, which is expressed as the concentration of compound required to reduce the increase in cAMP concentration upon GPR65 activation by 50% (i.e. an IC50).
Human GPR65 Cyclic Adenosine Monophosphate (cAMP) Homogeneous Time Resolved Fluorescence (HTRF) Antagonist Assay Procedure
IC50 data was obtained by the following procedure:
1321N1 human astrocytoma cells stably expressing human recombinant GPR65 (1321N1-hrGPR65 cells, EuroscreenFast) were cultured according to the vendor's instructions.
Compounds were tested for their ability to antagonise GPR65, through measuring the concentration of cytoplasmic cAMP following treatment of the cells at a pH of 7.2 to activate GPR65 signalling and addition of the compound to be tested. The extent to which the expected rise in cAMP concentration upon GPR65 activation was suppressed by the added compound is indicative of its potency. The assay was carried out according to EuroscreenFast assay methodology as follows.
On the day of the assay, test compounds were added to 384-well, low volume, white microtiter plates by acoustic dispensing. KRH buffer (5 mM KCl, 1.25 mM MgSO4, 124 mM NaCl, 25 mM HEPES, 13.3 mM Glucose, 1.25 mM KH2PO4 and 1.45 mM CaCl2) was adjusted to pH 6.5, pH 7.6 and pH 8.4 by adding NaOH. 1321N1-hGPR65 cells were rapidly thawed and diluted in KRH, pH 7.6 prior to centrifugation at 300×g for 5 min and resuspension in assay buffer (KRH, pH 7.6, supplemented with 1 mM 3-isobutyl-1-methylxanthine (IBMX) and 200 μM ethylenediaminetetraacetic acid (EDTA)). Cells were added to assay plates at a density of 2,000 cells per well in a volume of 5 μl. Assay plates were briefly centrifuged at 100×g and then incubated at room temperature for 30 min. Cells were stimulated by the addition of 5 μL KRH, pH 6.5, to achieve an assay pH of 7.2, while control wells received 5 μl KRH, pH 8.4 to achieve an assay pH of 7.9. Assay plates were briefly centrifuged at 100×g and then incubated at room temperature for 30 min.
Accumulation of cAMP was detected by cAMP HTRF kit (Cisbio). d2-labeled cAMP and cryptate-labeled anti-cAMP antibody in Lysis and Detection Buffer (Cisbio) were added to assay plates, and the plates were incubated at room temperature for 1 h. HTRF measurements were performed using a Pherastar FSX instrument. Acceptor and donor emission signals were measured at 665 nm and 620 nm, respectively, and HTRF ratios were calculated as signal665 nm/signal620 nm×104. Data were normalised to high and low control values and fitted with 4-parameter logistic regression to determine hGPR65 IC50 values for the test compounds, which are shown in Table 1.
Regarding `O=C(Nc1ccc(Cl)c(Cl)c1)N1C2CCC1c1ccc(F)cc1C2` (racemic) [Compound 74, (±)-N-(3,4-Dichlorophenyl)-2-fluoro-6,7,8,9-tetrahydro-5H-5,8-epiminobenzo[7]annulene-10-carboxamide], the IC50 is below 500 nM.

In the case of `O=C(Nc1ccc(C(F)(F)F)c(Cl)c1)N1C2CCC1c1ccc(F)cc1C2` (racemic) [Compound 75, (±)-N-(3-Chloro-4-(trifluoromethyl)phenyl)-2-fluoro-6,7,8,9-tetrahydro-5H-5,8-epiminobenzo[7]annulene-10-carboxamide], the concentration for half-maximal inhibition (IC50) was below 500 nM. The same measure, in the same setting: the figure for `O=C(Nc1ccc(Cl)c(Cl)c1)N1C2CCC1c1c[nH]c(=O)cc1C2` (racemic) [Compound 76, (±)-N-(3,4-Dichlorophenyl)-3-oxo-3,5,6,7,8,9-hexahydro-2H-6,9-epiminocyclohepta[c]pyridine-10-carboxamide] is below 500 nM; for `O=C(Nc1ccc(Cl)c(Cl)c1)N1C2CCC1c1ccnc(Cl)c1C2` (racemic) [Compound 77, (±)-1-Chloro-N-(3,4-dichlorophenyl)-6,7,8,9-tetrahydro-5H-5,8-epiminocyclohepta[c]pyridine-10-carboxamide] it is below 500 nM. On the same count and under the same terms, the figure for `O=C(Nc1ccc(Cl)c(Cl)c1)N1C2CCC1c1ccnc(F)c1C2` (racemic) [Compound 109, (±)-N-(3,4-Dichlorophenyl)-1-fluoro-6,7,8,9-tetrahydro-5H-5,8-epiminocyclohepta[c]pyridine-10-carboxamide] is below 500 nM; for `O=C(Nc1cc(Cl)c(C(F)(F)F)cc1F)N1C2CCC1c1c[nH]c(=O)c(F)c1C2` (racemic) [Compound 138, (±)-N-(5-Chloro-2-fluoro-4-(trifluoromethyl)phenyl)-4-fluoro-3-oxo-3,5,6,7,8,9-hexahydro-2H-6,9-epiminocyclohepta[c]pyridine-10-carboxamide] it is below 500 nM; for `O=C(Nc1cc(Cl)c(Cl)cc1F)N1C2CCC1c1c[nH]c(=O)c(F)c1C2` (racemic) [Compound 139, (±)-N-(4,5-Dichloro-2-fluorophenyl)-4-fluoro-3-oxo-3,5,6,7,8,9-hexahydro-2H-6,9-epiminocycloheptan[c]pyridine-10-carboxamide] it is below 500 nM.

Still in this experiment, the particulars now being: 1321N1-hrGPR65 cells, assay pH 7.2, cAMP HTRF; read-out: hGPR65 IC50 (activity class).
As to `Nc1ccc2c(c1)CC1CCC2N1C(=O)Nc1ccc(Cl)c(Cl)c1` (racemic) [Compound 73, (±)-2-Amino-N-(3,4-dichlorophenyl)-6,7,8,9-tetrahydro-5H-5,8-epiminobenzo[7]annulene-10-carboxamide], the IC50 was above 5000 nM. On the same count and under the same terms, the figure for `O=C(Nc1ccc(Cl)c(Cl)c1)N1C2CCC1c1cc(F)ccc1C2` (racemic) [Compound 80, (±)-N-(3,4-Dichlorophenyl)-3-fluoro-6,7,8,9-tetrahydro-5H-5,8-epiminobenzo[7]annulene-10-carboxamide] is 500 to 5000 nM; for `O=C(Nc1ccc(C(F)(F)F)c(Cl)c1)N1C2CCC1c1cc(F)ccc1C2` (racemic) [Compound 81, (±)-N-(3-Chloro-4-(trifluoromethyl)phenyl)-3-fluoro-6,7,8,9-tetrahydro-5H-5,8-epiminobenzo[7]annulene-10-carboxamide] it is 500 to 5000 nM. On the same count and under the same terms, the figure for `CC(C)(C)OC(=O)Nc1nccc2c1C1CCC(C2)N1C(=O)Nc1ccc(Cl)c(Cl)c1` (racemic) [Compound 82, tert-butyl ((±)-10-((3,4-dichlorophenyl)carbamoyl)-6,7,8,9-tetrahydro-5H-6,9-epiminocyclohepta[c]pyridin-1-yl)carbamate] is 500 to 5000 nM. Same read-out and setting: the figure for `O=C(Nc1ccc(Cl)c(Cl)c1)N1C2CCC1c1cccc(F)c1C2` (racemic) [Compound 83, (±)-N-(3,4-Dichlorophenyl)-1-fluoro-6,7,8,9-tetrahydro-5H-5,8-epiminobenzo[7]annulene-10-carboxamide] is 500 to 5000 nM; for `O=C(Nc1ccc(C(F)(F)F)c(Cl)c1)N1C2CCC1c1cccc(F)c1C2` (racemic) [Compound 84, (±)-N-(3-Chloro-4-(trifluoromethyl)phenyl)-1-fluoro-6,7,8,9-tetrahydro-5H-5,8-epiminobenzo[7]annulene-10-carboxamide] it is 500 to 5000 nM; for `O=C(Nc1ccc(Cl)c(Cl)c1)N1C2CCC1c1cccnc1C2` (racemic) [Compound 87, (±)-N-(3,4-Dichlorophenyl)-6,7,8,9-tetrahydro-5H-5,8-epiminocyclohepta[b]pyridine-10-carboxamide] it is above 5000 nM. Turning to `O=C(Nc1ccc(Cl)c(Cl)c1)N1C2CCC1c1cncc(F)c1C2` (racemic) [Compound 95, (±)-N-(3,4-Dichlorophenyl)-4-fluoro-6,7,8,9-tetrahydro-5H-6.9-epiminocyclohepta[c]pyridine-10-carboxamide], the IC50 fell in the range of 500 to 5000 nM. The same measure, in the same setting: the figure for `O=C(Nc1ccc(Cl)c(Cl)c1)N1C2CCC1c1cnc(Br)cc1C2` (racemic) [Compound 99, (±)-3-Bromo-N-(3,4-dichlorophenyl)-6,7,8,9-tetrahydro-5H-6,9-epiminocyclohepta[c]pyridine-10-carboxamide] is above 5000 nM; for `O=C(Nc1ccc(Cl)c(Cl)c1)N1C2CCC1c1cnc(Cl)cc1C2` (racemic) [Compound 100, (±)-3-Chloro-N-(3,4-dichlorophenyl)-6,7,8,9-tetrahydro-5H-6,9-epiminocyclohepta[c]pyridine-10-carboxamide] it is 500 to 5000 nM. Same read-out and setting: the figure for `O=C(Nc1ccc(Cl)c(Cl)c1)N1C2CCC1c1cnccc1C2` (racemic) [Compound 104, (±)-N-(3,4-Dichlorophenyl)-6,7,8,9-tetrahydro-5H-6,9-epiminocyclohepta[c]pyridine-10-carboxamide] is 500 to 5000 nM; for `O=C(Nc1ccc(Cl)c(Cl)c1)N1C2CCC1C(F)c1ncncc12` (racemic) [Compound 113, Cis-(±)-N-(3,4-Dichlorophenyl)-9-fluoro-6,7,8,9-tetrahydro-5H-5,8-epiminocyclohepta[d]pyrimidine-10-carboxamide] it is 500 to 5000 nM. Still for that read-out and setting: the figure for `O=C(Nc1ccc(Cl)c(Cl)c1)N1C2CCC1C(F)c1ncncc12` (racemic) [Compound 114, trans-(±)-N-(3,4-Dichlorophenyl)-9-fluoro-6,7,8,9-tetrahydro-5H-5,8-epiminocyclohepta[d]pyrimidine-10-carboxamide] is 500 to 5000 nM; for `O=C(Nc1ccc(Cl)c(Cl)c1)N1C2CCC1c1cnc(F)c(F)c1C2` (racemic) [Compound 135, (±)-N-(3,4-Dichlorophenyl)-3,4-difluoro-6,7,8,9-tetrahydro-5H-6,9-epiminocyclohepta[c]pyridine-10-carboxamide] it is 500 to 5000 nM. With `O=C(Nc1cc(Cl)c(C(F)(F)F)cc1F)N1C2CCC1c1cnc(F)c(F)c1C2` (racemic) [Compound 136, (±)-N-(5-Chloro-2-fluoro-4-(trifluoromethyl)phenyl)-3,4-difluoro-6,7,8,9-tetrahydro-5H-6,9-epiminocyclohepta[c]pyridine-10-carboxamide], the IC50 fell in the range of 500 to 5000 nM.

For the compound `O=C(Nc1cc(Cl)c(Cl)cc1F)N1C2CCC1c1cnc(F)c(F)c1C2` (racemic) [Compound 137, (±)-N-(4,5-Dichloro-2-fluorophenyl)-3,4-difluoro-6,7,8,9-tetrahydro-5H-6,9-epiminocyclohepta[c]pyridine-10-carboxamide], the IC50 lay in the range of 500 to 5000 nM. On the same count and under the same terms, the figure for `O=C(Nc1ccc(Cl)c(Cl)c1)N1C2CCC1c1ccnc(Br)c1C2` (racemic) [Compound 148, (±)-1-Bromo-N-(3,4-dichlorophenyl)-6,7,8,9-tetrahydro-5H-5,8-epiminocyclohepta[c]pyridine-10-carboxamide] is 500 to 5000 nM; for `COc1cc(NC(=O)N2C3CCC2c2ccnc(F)c2C3)ccc1-c1cnco1` (racemic) [Compound 152, (±)-1-Fluoro-N-(3-methoxy-4-(oxazol-5-yl)phenyl)-6,7,8,9-tetrahydro-5H-5,8-epiminocyclohepta[c]pyridine-10-carboxamide] it is 500 to 5000 nM.
